Test results from paper PMC4357465, “Tool Compounds Robustly Increase Turnover of an Artificial Substrate by Glucocerebrosidase in Human Brain Lysates” (PLoS ONE, 2015).
Values joined by “and” are separate entries in the source; they are usually repeats but may differ in a detail not shown here. Equal entries are not always repeated.

How the values were obtained:
Type in all cases: biochemical
[1] = test system: GBA1 in mouse brain lysates; test: GBA1 tissue assay, 4MUG turnover in mouse brain lysates; conditions: mouse brain lysate 10 μg, without sodium taurocholate
Description: (§1) Human cortex was acquired from brain banks (Tissue Solutions: http://www.tissue-solutions.com; Proteogenex: http://www.proteogenex.com). Human cortex samples were obtained from deceased aged Caucasian subjects without any diagnosis of neurodegenerative disorders. Mouse brain was obtained from 4–7 month old C57BL/6J mice. All mouse experiments were performed in accordance with the specifications of both the National Institutes of Health Guide for the Care and Use of Laboratory Animals, studies were approved by Pfizer’s Internal Animal Care and Use Committee (IACUC). […] Samples were then centrifuged at 20,000g for 15 minutes at 4°C. Supernatant was collected, and used for activity assays and Western blots. Protein concentration was determined using the Pierce BCA protein assay kit. Tissue lysates and pellets were stored at -80°C until use. For enzymatic activity assays, lysates were subjected only to one free-thaw cycle. Independent replicates were obtained using brain lysates from either different human subjects or different mice. […] Brain tissue lysates were diluted to 0.4 μg/ μl of protein in the same homogenization buffer, as described above. 25 μl of diluted lysate was added to the plate (Costar, 7200567). Lysates were then incubated on ice in the presence or absence of a compound for 30 minutes. 100 μl of assay buffer was then added to the plate. The same assay buffer was used as in the cell free/recombinant experiments and processed as described above.

[2] = molecular target: T1, GBA1 in mouse brain lysates (Mus musculus, UniProt P17439); test: as above; conditions: mouse brain lysate 10 μg, with sodium taurocholate
T1 construct: Mouse brain was obtained from 4–7 month old C57BL/6J mice; from tissue; host or cells: brain of C57BL/6J mice
T1 sequence (P17439 20-515): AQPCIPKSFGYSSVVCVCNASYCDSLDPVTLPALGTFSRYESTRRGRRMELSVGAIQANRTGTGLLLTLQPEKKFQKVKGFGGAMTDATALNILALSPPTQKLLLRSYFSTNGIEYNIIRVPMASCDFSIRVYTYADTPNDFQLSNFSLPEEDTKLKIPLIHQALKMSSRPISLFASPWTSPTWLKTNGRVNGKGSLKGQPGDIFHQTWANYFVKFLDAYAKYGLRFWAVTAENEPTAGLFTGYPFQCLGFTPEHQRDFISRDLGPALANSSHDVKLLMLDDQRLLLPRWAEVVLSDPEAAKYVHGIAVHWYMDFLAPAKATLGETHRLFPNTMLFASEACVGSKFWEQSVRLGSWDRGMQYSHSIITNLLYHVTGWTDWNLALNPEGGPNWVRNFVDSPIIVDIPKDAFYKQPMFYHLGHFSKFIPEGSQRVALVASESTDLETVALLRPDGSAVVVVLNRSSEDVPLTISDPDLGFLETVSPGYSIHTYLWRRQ
Description: as §1

[3] = molecular target: T2, GBA1 in lysates from human cortex (Homo sapiens, UniProt P04062); test: GBA1 tissue assay, 4MUG turnover in human cortex lysates; conditions: human cortex lysate 10 μg, with sodium taurocholate
T2 construct: Human cortex samples were obtained from deceased aged Caucasian subjects without any diagnosis of neurodegenerative disorders; tissue Tissue Solutions; Proteogenex; host or cells: human cortex (post mortem)
T2 sequence (P04062 40-536): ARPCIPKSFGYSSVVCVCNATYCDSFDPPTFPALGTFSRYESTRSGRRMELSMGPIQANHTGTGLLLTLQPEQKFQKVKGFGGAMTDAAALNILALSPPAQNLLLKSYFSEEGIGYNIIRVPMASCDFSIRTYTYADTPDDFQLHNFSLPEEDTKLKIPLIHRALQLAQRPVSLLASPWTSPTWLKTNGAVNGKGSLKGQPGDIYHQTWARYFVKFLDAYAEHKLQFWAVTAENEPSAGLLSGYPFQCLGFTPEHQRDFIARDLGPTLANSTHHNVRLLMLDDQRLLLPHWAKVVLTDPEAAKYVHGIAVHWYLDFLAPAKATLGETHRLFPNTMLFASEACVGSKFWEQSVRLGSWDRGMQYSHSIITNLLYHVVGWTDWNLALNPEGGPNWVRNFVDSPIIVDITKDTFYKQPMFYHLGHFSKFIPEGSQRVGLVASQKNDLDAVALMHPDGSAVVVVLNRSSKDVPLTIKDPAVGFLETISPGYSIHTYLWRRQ
Description: (§2) Brain lysates were prepared by mechanical homogenization of mouse brain and human cortex in 10x weight/volume of the homogenization buffer used in the GBA1 enzymatic cell-free assay (250 mM Sucrose, 10 mM Tris pH = 7.5, 1 mM EDTA, 0.25% Triton X-100 solution, protease inhibitors, phosphatase inhibitors I and III, PMSF). Human cortex was acquired from brain banks (Tissue Solutions: http://www.tissue-solutions.com; Proteogenex: http://www.proteogenex.com). Human cortex samples were obtained from deceased aged Caucasian subjects without any diagnosis of neurodegenerative disorders. Mouse brain was obtained from 4–7 month old C57BL/6J mice. All mouse experiments were performed in accordance with the specifications of both the National Institutes of Health Guide for the Care and Use of Laboratory Animals, studies were approved by Pfizer’s Internal Animal Care and Use Committee (IACUC).
(§3) Prior to 30 min lysis on ice, human brain samples were also sonicated for 15 seconds as this step was needed to fully extract GBA1 (data not shown). Samples were then centrifuged at 20,000g for 15 minutes at 4°C. Supernatant was collected, and used for activity assays and Western blots. Protein concentration was determined using the Pierce BCA protein assay kit. Tissue lysates and pellets were stored at -80°C until use. For enzymatic activity assays, lysates were subjected only to one free-thaw cycle. Independent replicates were obtained using brain lysates from either different human subjects or different mice.
(§4) GBA1 activity in tissues was measured using the assay conditions described in the previous section. 10 μg of protein/well was used for the activity experiments, unless stated otherwise. Brain tissue lysates were diluted to 0.4 μg/ μl of protein in the same homogenization buffer, as described above. 25 μl of diluted lysate was added to the plate (Costar, 7200567). Lysates were then incubated on ice in the presence or absence of a compound for 30 minutes. 100 μl of assay buffer was then added to the plate. The same assay buffer was used as in the cell free/recombinant experiments and processed as described above.

[4] = test system: GBA1 in lysates from human cortex; test: as above; conditions: human cortex lysate 10 μg, without sodium taurocholate
Description: as §2, §3, §4

| SMILES | % inhibition: - NaTc ([1]; 1mM) | % inhibition: + NaTc ([2]; 1mM) | % inhibition + NaTc ([3]; 1mM) | % inhibition - NaTc ([4]; 1mM) | % inhibition: - NaTc ([1]; 1 μM) | inhibition at 1 µM ([2]; 1 μM, read-out: % inhibition: + NaTc) [%] | % inhibition + NaTc ([3]; 1 μM) | inhibition at 1 µM ([3]; 1 μM, read-out: % inhibition + NaTc) [%] | % inhibition - NaTc ([4]; 1 μM) [%] | % inhibition - NaTc ([4]; 1 μM, listed as isofagomine) |
| --- | --- | --- | --- | --- | --- | --- | --- | --- | --- | --- |
| O[C@H]1[C@H](O)[C@@H](O)[C@@H]2O[C@@H]2[C@@H]1O [CBE] | 32% ± 4% | 82% ± 1% | 86 ± 4% and ~ 90% | 31 ± 8% and ~ 30% | – | – | – | – | – | – |
| OC[C@H]1CNC[C@@H](O)[C@@H]1O [Isofagomine, isofagomine] | – | – | – | – | 21% ± 3% | 82 | ~ 90% | 92 ± 2 | 27 ± 4 | ~ 30% |
